# Results from ChEMBL document CHEMBL4152261, “Positional scanning library applied to the human eosinophil cationic protein/RNase3 N-terminus reveals novel and potent anti-biofilm peptides” (Eur J Med Chem, 2018).
# Assays:
# Pseudomonas aeruginosa [1] = assay: Bactericidal activity against Pseudomonas aeruginosa PAO1 planktonic cells after 4 hrs by BacTiter-Glo assay; format: functional; conditions: PAO1, 4 h, read-out: ED50 (the source's name)
# Pseudomonas aeruginosa [2] = assay: Induction of biofilm eradication of Pseudomonas aeruginosa PAO1 after 4 hrs by BacTiter-Glo assay; format: functional; conditions: PAO1, 4 h, read-out: ED50 (the source's name)
# Lipopolysaccharide (LPS) [3] = assay: Displacement of BODIPY TR cadaverine from Pseudomonas aeruginosa LPS by fluorescence assay
# Pseudomonas aeruginosa [4] = assay: Induction of Pseudomonas aeruginosa PAO1 agglutination after 1 hr by binocular stereo microscopic method; format: functional
# [5] = Hemolytic activity in sheep RBC after 4 hrs; format: ADME, cell-based, Ovis aries, Erythrocyte; conditions: sheep red blood cells (erythrocytes)
# MRC5 = assay: Cytotoxicity against human MRC5 cells after 4 hrs by MTT assay; format: cell-based; conditions: MRC5, 4 h
# HepG2 = assay: Cytotoxicity against human HepG2 cells after 4 hrs by MTT assay; format: cell-based; conditions: HepG2, 4 h
# Pseudomonas aeruginosa [6] = assay: Bactericidal activity against Pseudomonas aeruginosa PAO1 planktonic cells at 1 uM after 4 hrs by BacTiter-Glo assay relative to control; format: functional
# Lipopolysaccharide (LPS) [7] = assay: Displacement of BODIPY TR cadaverine from Pseudomonas aeruginosa LPS at 1 uM by fluorescence assay relative to control
# [8] = Hemolytic activity in sheep RBC at 10 uM after 4 hrs relative to control; format: ADME, cell-based, Ovis aries, Erythrocyte; conditions: sheep red blood cells (erythrocytes), read-out: Activity
# [9] = Selectivity index, ratio of HC50 for sheep RBC to ED50 for induction of biofilm eradication of Pseudomonas aeruginosa PAO1; format: toxicity; conditions: sheep red blood cells (erythrocytes)
# [10] = Selectivity index, ratio of IC50 for human MRC5 cells to ED50 for induction of biofilm eradication of Pseudomonas aeruginosa PAO1; format: toxicity
Compound,EC50 (Pseudomonas aeruginosa [1]),EC50 (Pseudomonas aeruginosa [2]),ED50 (Lipopolysaccharide (LPS) [3]),MAC (Pseudomonas aeruginosa [4]),HC50 at 4 h [5],IC50 (MRC5),IC50 (HepG2),Activity (Pseudomonas aeruginosa [6]),inhibition (Lipopolysaccharide (LPS) [7]),"hemolysis at 4 h, 10 µM [8]",selectivity ratio [9],selectivity ratio [10]
CC[C@H](C)[C@H](NC(=O)[C@H](C)NC(=O)[C@H](CCCNC(=N)N)NC(=O)[C@H](CCSC)NC(=O)[C@H](C)NC(=O)[C@@H](NC(=O)[C@@H](NC(=O)[C@H](CCCNC(=N)N)NC(=O)[C@@H]1CCCN1C(=O)[C@H](CO)NC(=O)[C@@H](NC(=O)[C@H](Cc1cnc[nH]1)NC(=O)[C@H](CCC(N)=O)NC(=O)[C@@H](NC(=O)[C@H](C)NC(=O)[C@H](Cc1ccccc1)NC(=O)[C@H](Cc1c[nH]c2ccccc12)NC(=O)[C@H](CCC(N)=O)NC(=O)[C@H](C)NC(=O)[C@H](CCCNC(=N)N)NC(=O)[C@@H](NC(=O)[C@H](Cc1ccccc1)NC(=O)[C@@H]1CCCN1C(=O)[C@@H](N)CCCNC(=N)N)[C@@H](C)O)[C@@H](C)CC)[C@@H](C)CC)[C@H](C)O)[C@@H](C)CC)C(=O)N[C@@H](CC(N)=O)C(=O)N[C@@H](CC(N)=O)C(=O)N[C@@H](Cc1ccc(O)cc1)C(=O)N[C@@H](CCCNC(=N)N)C(=O)N[C@@H](Cc1c[nH]c2ccccc12)C(=O)N[C@@H](CCCNC(=N)N)C(=O)O,1.34 µM,6.62 µM,2.85 µM,1 µM,> 150 µM,> 150 µM,74.4 µM,50%,40%,10%,16 to 60,16 to 60
H-RPFTRAQIFAIQHISPRTIAMRAINNYRWR-OH,0.25 µM,4.37 µM,3.07 µM,0.125 µM,> 150 µM,> 150 µM,172 µM,–,–,–,16 to 60,16 to 60
H-RPFIRAQWFAIQHISPRTIAMRAINNYRWR-OH,0.55 µM,2.37 µM,3.42 µM,0.25 µM,> 150 µM,> 150 µM,95.8 µM,–,–,–,16 to 60,16 to 60
CC[C@H](C)[C@H](NC(=O)[C@H](C)NC(=O)[C@H](CCCNC(=N)N)NC(=O)[C@H](CCSC)NC(=O)[C@H](C)NC(=O)[C@@H](NC(=O)[C@@H](NC(=O)[C@H](CCCNC(=N)N)NC(=O)[C@@H]1CCCN1C(=O)[C@H](CO)NC(=O)[C@@H](NC(=O)[C@H](Cc1cnc[nH]1)NC(=O)[C@@H](NC(=O)[C@@H](NC(=O)[C@H](C)NC(=O)[C@H](Cc1ccccc1)NC(=O)[C@H](Cc1c[nH]c2ccccc12)NC(=O)[C@H](CCC(N)=O)NC(=O)[C@H](C)NC(=O)[C@H](CCCNC(=N)N)NC(=O)[C@@H](NC(=O)[C@H](Cc1ccccc1)NC(=O)[C@@H]1CCCN1C(=O)[C@@H](N)CCCNC(=N)N)[C@H](C)O)[C@@H](C)CC)[C@@H](C)CC)[C@@H](C)CC)[C@@H](C)O)[C@@H](C)CC)C(=O)N[C@@H](CC(N)=O)C(=O)N[C@@H](CC(N)=O)C(=O)N[C@@H](Cc1ccc(O)cc1)C(=O)N[C@@H](CCCNC(=N)N)C(=O)N[C@@H](Cc1c[nH]c2ccccc12)C(=O)N[C@@H](CCCNC(=N)N)C(=O)O,0.44 µM,3.19 µM,1.66 µM,0.25 µM,> 100 µM,> 100 µM,59.6 µM,–,–,–,16 to 60,16 to 60
